# In patent US20130072506A1, “6,8-DISUBSTITUTED PURINE COMPOSITIONS” (priority 2011, published 2013):
# Legend:
# [1] = test system: breast carcinoma cell line MCF-7; experiment: In vitro cytotoxic activity (metabolisation of Calcein AM); type: cell-based, human; conditions: MCF7 cells, 72 hours incubation, called GI50, read-out: Cell line tested/IC50 (μmol/L) MCF7
# Text: (§1) In vitro Cytotoxic Activity (Metabolisation of Calcein AM). Because toxic compounds negatively influence metabolic processes of cells, many standard cytotoxicity assays are based on measurement of metabolisation rate of various artificial substrates. Resulting product is then quantified, for example, by means of spectrometry. The assays can be easily modified for use in 96-well plates. For evaluation of cytotoxicity of the 6,8-disubstituted purines of this invention, a microtiter assay based on quantification of metabolisation of Calcein AM was used. The assay is widely used in drug screening programs and in chemosensitivity testing. In live cells, Calcein AM is enzymatically hydrolysed and accumulation of resulting calcein is manifested by green fluorescence.
# (§2) The following human cell lines were used for routine screening of the compounds: normal diploid fibroblasts BJ, T-lymphoblastic leukemia cell line CEM, promyelocytic leukemia cell line HL-60, erytroid leukemia cell line K-562, breast carcinoma cell line MCF-7, osteosarcoma cell line HOS and melanoma cell line G-361. The cells were maintained in Nunc/Corning 80 cm^2 plastic tissue culture flasks and cultured in cell culture medium (DMEM with 5 g/l glucose, 2 mM glutamine, […] penicillin, 100 mmg/ml streptomycin, 10% fetal calf serum and sodium bicarbonate).
# (§3) The cell suspensions were prepared and diluted according to the particular cell type and the expected target cell density (2.500-30.000 cells per well based on cell growth characteristics) and pipetted (80 μl) into 96-well plates. Inoculates were allowed a pre-incubation period of 24 hours at 37° C. and 5% CO2 for stabilization. Tested compound was added in total volume of […] of water at time zero. Usually, test compound was evaluated at six 3-fold dilutions. In routine testing, the highest concentration tested was 100 μM, but it could have been adjusted because of limited solubility of a compound. All drug concentrations were tested in triplicates.
# (§4) Incubations of cells with the test compounds lasted for 72 hours at 37° C., in 5% CO2 atmosphere and 100% humidity. At the end of incubation period Calcein AM in PBS was added into final concentration of 1 μg/ml. After another 1 hour of incubation fluorescence (FD) was measured with the Labsystem FIA Reader Fluoroscan Ascent (UK). Growth inhibition (GI) was estimated using the following equitation: GI=(mean FDdrug exposed wells−mean FDblank)/(mean FDcontrol wells−mean FDblank)×100%. The GI50 value, the drug concentration causing 50% reduction of Calcein AM conversion, was calculated from the obtained dose response curves.
# [2] = test system: normal diploid fibroblasts BJ; experiment: as above; type: cell-based, human; conditions: BJ cells, 72 hours incubation, called GI50, read-out: Cell line tested/IC50 (μmol/L) BJ
# Text: as §1, §2, §3, §4
# melanoma cell line G-361 = experiment: as above; type: cell-based, human; conditions: G-361 cells, 72 hours incubation, called GI50, read-out: Cell line tested/IC50 (μmol/L) G-361
# Text: as §1, §2, §3, §4
# [3] = test system: T-lymphoblastic leukemia cell line CEM; experiment: as above; type: cell-based, human; conditions: CEM cells, 72 hours incubation, called GI50, read-out: Cell line tested/IC50 (μmol/L) CEM
# Text: as §1, §2, §3, §4
# [4] = test system: osteosarcoma cell line HOS; experiment: as above; type: cell-based, human; conditions: HOS cells, 72 hours incubation, called GI50, read-out: Cell line tested/IC50 (μmol/L) HOS
# Text: as §1, §2, §3, §4
# [5] = test system: erytroid leukemia cell line K-562; experiment: as above; type: cell-based, human; conditions: K-562 cells, 72 hours incubation, called GI50, read-out: Cell line tested/IC50 (μmol/L) K-562
# Text: as §1, §2, §3, §4
# [6] = test system: Human diploid fibroblast BJ; experiment: In vitro cytotoxic activity (metabolisation of MTT); type: cell-based; conditions: 72 hours, BJ passage 18-22
# Method: In vitro Cytotoxic Activity (metabolisation of Mtt). MTT ([…]) assay is a standard colorimetric assay for evaluation of cytotoxicity. Mitochondrial dehydrogenase activity converts yellow MTT into violet formazan which is measured by means of spectrometry.
# Human diploid fibroblast BJ (passage 18-22) were seeded into 96-well plate (5.000 cells per well). After 6 hours cultivation medium (DMEM with 5 g/l glucose, 2 mM glutamine, 100 U/ml penicillin, 100 mmg/ml streptomycin, 10% fetal calf serum and sodium bicarbonate) was replaced with the cultivation medium containing test compounds in concentration range of 0-200 μM. Highest concentration was adjusted if the solubility of the compound was limiting. Every concentration was tested in pentaplicate. MTT was added to the cells after 72 hours incubation (final concentration 0.5 mg/ml) and incubation continued for another 3 hours. MTT was solubilised by DMSO and absorbance at 570 nm was measured. Growth inhibition (GI) was estimated using the following equitation: GI=(mean A drug exposed wells−mean Ablank/mean Acontrol wells−mean Ablank)×100%. The GI20 value, the drug concentration causing 20% decrease in mitochondrial dehydrogenase activity, was calculated from the obtained dose response curves.
Structure (SMILES),melting point [°C],IC50 [1] [µmol/L],IC50 [2] [µmol/L],IC50 (melanoma cell line G-361) [µmol/L],IC50 [3] [µmol/L],IC50 [4] [µmol/L],IC50 [5] [µmol/L],GI20 [6] [µM]
"C/C(=C\CNc1ncnc2nc(N(C)C)[nH]c12)CO [Example 7 (23), (E)-8-Dimethylamino-6-(4-hydroxy-3-methylbut-2-en-1-ylamino)purine]",245 to 249,–,–,–,–,–,–,–
CC(=CCNc1ncnc2nc(N(C)C)[nH]c12)CO [Compound 63],–,> 50,> 50,> 50,> 50,> 50,> 50,>100
CC(=CCNc1ncnc2nc(N)[nH]c12)CO [Compound 84],–,> 50,> 50,> 50,> 50,> 50,> 50,>100
COc1cccc(CNc2ncnc3nc(N)[nH]c23)c1 [Compound 98],–,> 50,> 50,> 50,> 50,> 50,> 50,>100
"CN(C)c1nc2ncnc(NCc3ccco3)c2[nH]1 [Compound 61, 8-Dimethylamino-6-furfurylaminopurine]",245 to 246,–,–,–,–,–,–,–
Nc1nc2ncnc(NCc3ccccc3F)c2[nH]1 [Compound 88],–,> 50,> 50,> 50,> 50,> 50,> 50,>100
COc1ccc(CNc2ncnc3nc(N)[nH]c23)cc1 [Compound 99],–,> 50,> 50,> 50,> 50,> 50,> 50,>100
"OCCOc1nc2ncnc(NCc3ccco3)c2[nH]1 [Example 7 (18), 6-Furfurylamino-8-(2-hydroxyethyloxy)purine]",182 to 184,–,–,–,–,–,–,–
"CC(C)=CCNc1ncnc2nc(N(C)C)[nH]c12 [Example 7 (19), 8-Dimethylamino-6-(3-methylbut-2-en-1-ylamino)purine]",246 to 249,–,–,–,–,–,–,–
"N#Cc1nc2ncnc(NCc3ccccc3)c2[nH]1 [Compound 174, 6-Benzylamino-8-cyanopurine]",210 to 213,–,–,–,–,–,–,–
Nc1nc2ncnc(Nc3cccc(O)c3)c2[nH]1 [Compound 115],–,> 50,> 50,> 50,> 50,> 50,> 50,>100
Nc1nc2ncnc(NCc3ccc(Cl)c(Cl)c3)c2[nH]1 [Compound 101],–,> 50,> 50,> 50,> 50,> 50,> 50,>100
COc1cccc(CNc2ncnc3nc(N)[nH]c23)c1O [Compound 104],–,> 50,> 50,> 50,> 50,> 50,> 50,>100
Nc1nc2ncnc(NCc3ccc(Cl)cc3)c2[nH]1 [Compound 92],–,> 50,> 50,> 50,> 50,> 50,> 50,>100
"CSc1nc2ncnc(NCC=C(C)C)c2[nH]1 [Compound 149, 6-(3-Methylbut-2-en-1-ylamino)-8-methylsulphanylpurine]",96 to 99,–,–,–,–,–,–,–
Oc1cc(O)cc(CNc2ncnc3nc(Cl)[nH]c23)c1 [Compound 47],–,> 100,> 100,> 100,> 100,> 100,> 100,>200
Nc1nc2ncnc(NCc3cccc(O)c3O)c2[nH]1 [Compound 102],–,> 50,> 50,> 50,> 50,> 50,> 50,>100
Oc1cccc(CNc2ncnc3nc(Cl)[nH]c23)c1O [Compound 46],–,> 100,> 100,> 100,> 100,> 100,> 50,>200
Nc1nc2ncnc(NCc3ccc(O)c(O)c3)c2[nH]1 [Compound 103],–,> 50,> 50,> 50,> 50,> 50,> 50,>100
Nc1nc2ncnc(Nc3ccccc3O)c2[nH]1 [Compound 114],–,> 50,> 50,> 50,> 50,> 50,> 50,>100
Nc1nc2ncnc(NCc3cccc(F)c3)c2[nH]1 [Compound 89],–,> 50,> 50,> 50,> 50,> 50,> 50,>100
CC(CO)CCNc1ncnc2nc(N(C)C)[nH]c12 (stereo not drawn) [Compound 64],–,> 50,> 50,> 50,> 50,> 50,> 50,>100
CC(C)=CCNc1ncnc2nc(NCCCN)[nH]c12 [Compound 211],–,> 50,> 50,> 50,> 50,> 50,> 50,>100
Nc1nc2ncnc(NCc3ccc(F)cc3)c2[nH]1 [Compound 90],–,> 50,> 50,> 50,> 50,> 50,> 50,>100
"O=C(O)c1nc2ncnc(NCc3ccccc3)c2[nH]1 [Compound 202, 6-Benzylaminopurine-8-carboxylic acid]",230 to 232,–,–,–,–,–,–,–
COc1ccccc1CNc1ncnc2nc(N)[nH]c12 [Compound 97],–,> 50,> 50,> 50,> 50,> 50,> 50,>100
CC(=CCNc1ncnc2nc(NCCCN)[nH]c12)CO [Compound 210],–,> 50,> 50,> 50,> 50,> 50,> 50,>100
"COc1nc2ncnc(NCC=C(C)C)c2[nH]1 [Compound 123, 8-Methoxy-6-(3-methylbut-2-en-1-ylamino)purine]",205 to 210,–,–,–,–,–,–,–
Cc1cccc(Nc2ncnc3nc(N(C)C)[nH]c23)c1 [Compound 81],–,> 50,> 50,> 50,> 50,> 50,> 50,>100
COc1ccc(CNc2ncnc3nc(N)[nH]c23)cc1O [Compound 105],–,> 50,> 50,> 50,> 50,> 50,> 50,>100
